Literature values, collected in US20240216476A1, “COMBINATION OF BITTER RECEPTOR AGONIST AND GUT-SIGNALING COMPOUND” (AARDVARK THERAPEUTICS, INC., priority 2021, published 2024).
Read-outs that look alike come from different tables or passages of the source. Marks after values point to notes of the source that are not given here.

Columns and labels:
[1] = cited from earlier work
[2] = test system: NASH in vivo models; settings: cited from earlier work
[3] = mouse model of diet-induced NASH, 10 mg/kg/day PO for eight weeks
[4] = mouse model of diet-induced NASH, 10 mg/kg/day PO for eight weeks, significantly
[5] = Male C57BL/6J mice fed high fat diet for 20 weeks, 0.3 mg/kg/day PO for 20 weeks
[6] = Male C57BL/6J mice fed AMLN diet for 50 weeks, 30 mg/kg, PO, QD for 8 weeks
[7] = C57BL/6 male mice fed MCD diet for 4 weeks, 5 mg/kg/day PO for the last 2 weeks
[8] = C57Bl6/J mice fed MCD diet for 3 weeks, 10 or 30 mg/kg, PO, QD for 3 weeks
[9] = Male C57BL/6 mice fed fast food diet for 330 days, treatment started after 240 days, dose unknown
[10] = Male DIAMOND mice fed WDSW for 24 weeks, 30 mg/kg/day PO QD for the last 8 weeks
[11] = Male C57BL/6 mice fed CDAHFD diet for 20 weeks, 3 mg/kg PO for 12 weeks
[12] = C57BL/6 mice on 60% high fat diet for 36 weeks, 0.3-3 mg/kg/day PO for 24 days

Molecule: CCCCCCCCCCCCCCCC(=O)N[C@@H](CCC(=O)NCCCC[C@H](NC(=O)[C@H](C)NC(=O)[C@H](C)NC(=O)[C@H](CCC(N)=O)NC(=O)CNC(=O)[C@H](CCC(=O)O)NC(=O)[C@H](CC(C)C)NC(=O)[C@H](Cc1ccc(O)cc1)NC(=O)[C@H](CO)NC(=O)[C@H](CO)NC(=O)[C@@H](NC(=O)[C@H](CC(=O)O)NC(=O)[C@H](CO)NC(=O)[C@@H](NC(=O)[C@H](Cc1ccccc1)NC(=O)[C@@H](NC(=O)CNC(=O)[C@H](CCC(=O)O)NC(=O)[C@H](C)NC(=O)[C@@H](N)Cc1cnc[nH]1)[C@@H](C)O)[C@@H](C)O)C(C)C)C(=O)N[C@@H](CCC(=O)O)C(=O)N[C@@H](Cc1ccccc1)C(=O)N[C@H](C(=O)N[C@@H](C)C(=O)N[C@@H](Cc1c[nH]c2ccccc12)C(=O)N[C@@H](CC(C)C)C(=O)N[C@H](C(=O)N[C@@H](CCCNC(=N)N)C(=O)NCC(=O)N[C@@H](CCCNC(=N)N)C(=O)NCC(=O)O)C(C)C)[C@@H](C)CC)C(=O)O [Liraglutide]
- Incidence of Hypoglycemic Episodes for Combination with Metformin (vs. Placebo) ([1]; prescribing information): 3.6%
- Incidence of Hypoglycemic Episodes for Combination with a Sulfonylurea (vs. Placebo) ([1]; prescribing information, lixisenatide: add-on to a sulfonylurea with or without metformin): 7.5%

Molecule: Cc1cc(OCP2(=O)OCC[C@@H](c3cccc(Cl)c3)O2)cc(C)c1Cc1ccc(O)c(C(C)C)c1 (some centres unmarked) [VK2809]
- NAS score, mean improvement [2, 3]: (a 40% mean
- all subcomponents of NAS (inflammation, ballooning, and steatosis) [2, 3]: Improvements in all
- liver contents of triglyceride, cholesterol, collagen, and hydroxyproline [2, 4]: improved liver contents
- liver fibrosis on histopathology [2, 4]: improved NAS score
- plasma triglycerides and cholesterol [2, 4]: reduced plasma

Molecule: CCCCOCCOc1ccc(-c2ccc3c(c2)/C=C(/C(=O)Nc2ccc([S@@+]([O-])Cc4cncn4CCC)cc2)CCCN3CC(C)C)cc1 [Cenicriviroc]
- intrahepatic accumulation of inflammatory macrophages ([2]; Male C57BL/6N mice fed CDAHFD, IP, 30 mg/kg/day for 4 or 14 weeks): Inhibited intrahepatic
- frequency of intrahepatic anti-inflammatory macrophages ([2]; Male C57BL/6N mice fed CDAHFD, IP, 30 mg/kg/day for 14 weeks): weeks, and increased
- fibrosis on histopathology ([2]; Male C57BL/6N mice fed CDAHFD, IP, only with 30 mg/kg/day for 14 weeks): Significantly improved

Molecule: C[C@H](NC(=O)C(=O)Nc1ccccc1C(C)(C)C)C(=O)N[C@@H](CC(=O)O)C(=O)COc1c(F)c(F)cc(F)c1F [Emricasan]
- inflammation, ballooning, and fibrosis on histopathology [2, 5]: Improved
- serum levels of glucose, HOMA-IR, cholesterol, ALT, and AST [2, 5]: Decreased serum levels

Molecule: CC[C@H]1[C@@H](O)[C@@H]2[C@H](CC[C@]3(C)[C@@H]([C@H](C)CCC(=O)O)CC[C@@H]23)[C@@]2(C)CC[C@@H](O)C[C@@H]12 [Obeticholic acid (INT-747)]
- histopathological scores of hepatic steatosis and inflammation [2, 6]: Significantly reduced
- liver weight [2, 6]: Significantly reduced
- total liver TG and total cholesterol, collagen 1a1, and galectin-3 content [2, 6]: Significantly reduced
- plasma total cholesterol ([2]; Male C57BL/6J mice fed AMLN diet for 50 weeks, 30 mg/kg, PO, QD for 8 weeks, significant): reduced plasma total

Molecule: CCCCCCCCCCCCCCCCCCCC(=O)N[C@H]1CC[C@@]2(C)[C@@H](C1)C[C@@H](O)[C@@H]1[C@@H]2C[C@H](O)[C@]2(C)[C@@H]([C@H](C)CCC(=O)O)CC[C@@H]12.CNC[C@H](O)[C@@H](O)[C@H](O)[C@H](O)CO [Aramchol]
- ALT, AST, or TG [2, 7]: No effects on ALT,
- features of steatohepatitis and fibrosis [2, 7]: Reduced features of
- protein expression of COL1A1 in the liver [2, 7]: decreased protein

Molecule: O=C(O)CCCc1cc2cc(Cl)ccc2n1S(=O)(=O)c1ccc2ncsc2c1 [Lanifibranor (IVA337)]
- induction of profibrotic and fibrotic genes [2, 8]: inhibited the induction
- plasma alanine aminotransferase levels [2, 8]: significantly reduced
- steatosis and inflammation on histopathology [2, 8]: IVA337 prevented

Molecule: Lixisenatide
- Incidence of Hypoglycemic Episodes for Combination with Insulin (vs. Placebo) ([1]; in vivo): 28%*
- Incidence of Hypoglycemic Episodes for Combination with Metformin (vs. Placebo) ([1]; in vivo): 3%
- Incidence of Hypoglycemic Episodes for Combination with a Sulfonylurea (vs. Placebo) ([1]; in vivo): 15%**
- Incidence of Hypoglycemic Episodes for Monotherapy at the Highest Dose (vs. Placebo) ([1]; in vivo): 2%

Molecule: Cc1cc(F)c(C(=O)Nc2cccc(-c3nncn3C(C)C)n2)cc1-n1cnc(C2CC2)c1 [Selonsertib (GS-4997)]
- liver steatosis, fibrosis, and insulin resistance [2, 9]: Significantly reduced
- reduction of liver cholesterol [2, 9]: 45%
- reduction of serum bile acid cholate [2, 9]: cholate (91% reduction)
- reduction of serum cholesterol [2, 9]: 14%

Molecule: COc1cccc(C(=O)COc2ccc(CC3SC(=O)[N-]C3=O)cc2)c1.[K+] (centres unmarked) [Azemiglitazone (MSDC 0602K)]
- NASH CRN fibrosis score [2, 10]: treated group was 0.
- ballooning [2, 10]: significantly decreased
- mice progressed from simple steatosis to NASH compared to the control group [2, 10]: Significantly fewer
- serum levels of fasting insulin, and AST and ALT [2, 10]: dramatically reduced
- steatosis-activity-fibrosis (SAF) score ([2]; Male DIAMOND mice fed WDSW for 24 weeks, 30 mg/kg/day PO QD for the last 8 weeks, significantly, reduced to the level of baseline controls): lower in the MSDC-

Molecule: CSc1ccc(C(=O)/C=C/c2cc(C)c(OC(C)(C)C(=O)O)c(C)c2)cc1 [Elafibranor (GFT505)]
- histopathological scores of hepatic steatosis and inflammation, as well as fibrosis severity [2, 6]: Significantly reduced
- liver TG, total cholesterol contents, or plasma levels of ALT, AST, TG or total cholesterol [2, 6]: No effects on liver TG,

Molecule: CCO[C@@H](Cc1ccc(OCCn2c(C)ccc2-c2ccc(SC)cc2)cc1)C(=O)O [Saroglitazar]
- hepatic steatosis [2, 11]: induced reversal of
- liver TNFα levels and hepatic fibrogenic and inflammatory gene expression [2, 11]: reduced liver TNFα
- reduction of serum ALT [2, 11]: including ALT (60%),
- reduction of serum AST [2, 11]: AST (43%), and MCP1
- reduction of serum MCP1 [2, 11]: (45%). Liver lipid (TG)
- vacuolation and ballooning [2, 11]: reduced or no

Molecule: CC[C@H]1[C@@H](O)[C@@H]2[C@H](CC[C@]3(C)[C@@H]([C@H](C)CCNC(=O)NS(=O)(=O)c4ccc(C(C)(C)C)cc4)CC[C@@H]23)[C@@]2(C)CC[C@@H](O)C[C@@H]12 [EDP-305]
- fibrogenic gene expression ([2]; Male C57BL/6 mice fed CDAHFD diet for 12 weeks, high dose (30 mg/kg daily PO) from week 6, significant): decreased fibrogenic
- fibrosis progression on histopathology ([2]; Male C57BL/6 mice fed CDAHFD diet for 12 weeks, high-dose 30 mg/kg daily PO from beginning of week 6): halted fibrosis

Molecule: O=C(O)c1cc(F)c2nc(N3[C@@H]4CC[C@H]3C[C@@H](OCc3c(-c5ccccc5OC(F)(F)F)noc3C3CC3)C4)sc2c1 [Tropifexor]
- inflammation, steatosis, and fibrosis ([2]; AMLN model (C57BL/6J mice on AMLN diet for 30 weeks), 0.03-0.9 mg/kg for the last 4 weeks): tropifexor reduced
- mRNA levels of fibrogenic markers and hepatic inflammation cell populations ([2]; AMLN model (C57BL/6J mice), 0.03-0.9 mg/kg for the last 4 weeks): dramatically reduced
- ALT/AST levels relative to controls ([2]; AMLN model (C57BL/6J mice), 0.03-0.9 mg/kg for the last 4 weeks, dose-dependent): reduction in ALT/AST

Molecule: CC(C)c1cc(Oc2c(Cl)cc(-n3nc(C#N)c(=O)[nH]c3=O)cc2Cl)n[nH]c1=O [Resmetirom (MGL-3196)]
- insulin sensitivity [2, 12]: Improved insulin
- reduction of serum ALT [2, 12]: (46%), free fatty acids
- reduction of serum cholesterol [2, 12]: (67%).
- reduction of serum free fatty acids [2, 12]: (30%), and cholesterol
- steatosis, fibrosis or inflammation in treated livers [2, 12]: No detectable
